Test results as given in publication PMC4544722 (Drug Design, Development and Therapy, 2015).

Assay: everted gut sac model in vitro
Details: jejunum, ECH 0.09 mg/mL; verapamil 0.2 mg/mL, borneol 0.1 mg/mL, pennyroyal 0.1 mL/mL, clove oil 0.1 mL/mL

CC1(C)C2CCC1(C)C(O)C2 (stereo not shown) [borneol]
effect on ECH absorption parameters F and Papp versus control: neither borneol nor pennyroyal had significant absorption enhancing effect
